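Tested at 5 concentrations; 48 h exposure; 96-well plates; endpoints linearly interpolated, else capped at highest concentration. GI50: concentration for 50% inhibition of growth. Definition used: TGI = concentration required for complete inhibition of growth.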

This note sets out measurements from PubChem BioAssay (NCI).

Test systems include OVCAR-8 ovarian; LOX IMVI melanoma; MOLT-4 leukemia; CCRF-CEM leukemia; OVCAR-3 ovarian; HCT-116 colon; HL-60(TB) leukemia; SK-OV-3 ovarian; MDA-MB-435.
Assay in all cases: NCI anticancer screen, dose series, 48 h

As for `Cc1ccc(N=C2N=C(N3CC(C)OC(C)C3)c3ccccc32)cc1` (centres undefined), the TGI in the test on OVCAR-8 ovarian is > 100 µM; in the test with LOX IMVI melanoma it was > 100 µM; in the test with MOLT-4 leukemia, 47.8 µM; with CCRF-CEM leukemia it was 66.8 µM; in the test on OVCAR-3 ovarian it was 73.4 µM; with HCT-116 colon, 48.8 µM.

Regarding `Cc1ccc(/C=C/C(=O)c2sc(-n3nc(-c4ccccc4)cc3-c3ccccc3)nc2C)cc1`, the TGI with HL-60(TB) leukemia, with OVCAR-8 ovarian, with SK-OV-3 ovarian, with LOX IMVI melanoma, with MOLT-4 leukemia and in the test with CCRF-CEM leukemia was > 100 µM in each case. Further, the TGI in the test on OVCAR-3 ovarian was > 100 µM.

On to `O=C1C=C2CCCC2C(C(=O)O)(C(=O)O)C1` (centres undefined), for which the TGI in the test with HL-60(TB) leukemia, with OVCAR-8 ovarian, in the test with SK-OV-3 ovarian, in the test on LOX IMVI melanoma, in the test with MOLT-4 leukemia and in the test on CCRF-CEM leukemia was > 100 µM throughout. In addition, the TGI in the test on OVCAR-3 ovarian and in the test with HCT-116 colon was > 100 µM throughout.

Consider `O=C(N=c1nc(NC(=O)c2ccccc2)ss1)c1ccccc1`, for which the TGI in the test on HL-60(TB) leukemia was 40.6 µM; in the test with OVCAR-8 ovarian it was 82.8 µM; with SK-OV-3 ovarian, 68.9 µM; in the test with LOX IMVI melanoma, > 100 µM; with MOLT-4 leukemia, > 100 µM; in the test with CCRF-CEM leukemia it was > 100 µM. For the same compound, the TGI was 55.7 µM in the test with OVCAR-3 ovarian and > 100 µM with HCT-116 colon.

As for `COc1ccc(O)cc1C(O)c1ccccc1` (centres undefined), the TGI in the test with HL-60(TB) leukemia, in the test on OVCAR-8 ovarian, with SK-OV-3 ovarian, in the test on LOX IMVI melanoma, in the test with MOLT-4 leukemia and with CCRF-CEM leukemia was > 100 µM in each case. The TGI in the test with OVCAR-3 ovarian and in the test on HCT-116 colon was > 100 µM in each case.

Consider `O=C(N/C(=C\c1ccccc1O)c1nc2ccccc2[nH]1)c1ccccc1`, for which the TGI with OVCAR-8 ovarian, with SK-OV-3 ovarian, in the test with LOX IMVI melanoma, in the test with MOLT-4 leukemia, in the test on CCRF-CEM leukemia and with OVCAR-3 ovarian was > 100 µM in each case. Also, the TGI in the test with HCT-116 colon was > 100 µM.

With `O=C(CC1C(=O)Nc2ccccc2S1(=O)=O)Nc1ccc(Cl)cc1` (centres undefined), the TGI with HL-60(TB) leukemia is 42.1 µM; in the test with OVCAR-8 ovarian it was > 100 µM; with LOX IMVI melanoma, 41.8 µM; with MOLT-4 leukemia, 37.6 µM; with CCRF-CEM leukemia, 77.7 µM; with OVCAR-3 ovarian, 39.4 µM. Also, the TGI in the test with HCT-116 colon was > 100 µM.

Consider `COc1c(I)c(OC)c2c(c1I)O[C@@H]1OCC[C@H]21`, for which the TGI with HL-60(TB) leukemia is 55.6 µM; in the test with OVCAR-8 ovarian, > 100 µM; with SK-OV-3 ovarian it was > 100 µM; in the test on LOX IMVI melanoma, > 100 µM; in the test on MOLT-4 leukemia it was 54.4 µM; with CCRF-CEM leukemia, > 100 µM. Further, the results for the TGI in the test with OVCAR-3 ovarian and with HCT-116 colon were 91.7 µM and > 100 µM, respectively.

For the compound `N#C/C(=C1\OC(=N)C(c2ccccc2)C1=O)c1ccccc1` (centres undefined), the TGI was 54.4 µM in the test with HL-60(TB) leukemia; > 89.2 µM with OVCAR-8 ovarian; > 100 µM with SK-OV-3 ovarian; 91.5 µM with LOX IMVI melanoma; 74.6 µM in the test with MOLT-4 leukemia; 48.6 µM in the test with CCRF-CEM leukemia. The TGI in the test with OVCAR-3 ovarian is > 67.7 µM; in the test with HCT-116 colon, 31.6 µM.

On to `C[N+](C)(C)c1cc[c]([Sn]([c]2ccc([N+](C)(C)C)cc2)([c]2ccc([N+](C)(C)C)cc2)[c]2ccc([N+](C)(C)C)cc2)cc1`, for which the GI50 in the test on HL-60(TB) leukemia, in the test with OVCAR-8 ovarian, with SK-OV-3 ovarian, with LOX IMVI melanoma, with OVCAR-3 ovarian and with HCT-116 colon was > 100 µM each time. Further, the TGI in the test with HL-60(TB) leukemia, with OVCAR-8 ovarian, in the test with SK-OV-3 ovarian, in the test with LOX IMVI melanoma, in the test with OVCAR-3 ovarian and with HCT-116 colon was > 100 µM throughout.

`O=C(CCC(=O)Nc1cccc(C(F)(F)F)c1)CC(=O)c1ccc2ccccc2c1`: the TGI in the test with HL-60(TB) leukemia, with OVCAR-8 ovarian, in the test on SK-OV-3 ovarian, with LOX IMVI melanoma, in the test with MOLT-4 leukemia and in the test on CCRF-CEM leukemia was > 100 µM in each case. Moreover, the TGI in the test on OVCAR-3 ovarian and in the test on HCT-116 colon was > 100 µM in each case.

Consider `CCOC(=O)c1[nH]c2cc(OC)c(OC)cc2c1CN(C)C`, for which the TGI with HL-60(TB) leukemia, in the test with OVCAR-8 ovarian, in the test with SK-OV-3 ovarian, in the test with LOX IMVI melanoma, in the test with MOLT-4 leukemia and in the test with CCRF-CEM leukemia was > 100 µM each time. For the same compound, in the test with HCT-116 colon, the TGI was > 100 µM.

Turning to `CCc1cc2c(O)c(c1)Cc1cc(CC)cc(c1O)Cc1cc(CC)cc(c1O)Cc1cc(CC)cc(c1O)Cc1cc(CC)cc(c1O)Cc1cc(CC)cc(c1O)Cc1cc(CC)cc(c1O)C2`, the TGI in the test on HL-60(TB) leukemia, with OVCAR-8 ovarian, in the test with MOLT-4 leukemia, in the test on CCRF-CEM leukemia, in the test on OVCAR-3 ovarian and in the test with HCT-116 colon was > 100 µM throughout.

Turning to `C/C=C/C(=O)[O-].C/C=C/C(=O)[O-].N.N.N.N.[Co+3].[O-][Cl+3]([O-])([O-])[O-]`, the GI50 in the test on HL-60(TB) leukemia, with OVCAR-8 ovarian, in the test with SK-OV-3 ovarian, in the test with LOX IMVI melanoma, in the test on MOLT-4 leukemia and in the test on CCRF-CEM leukemia was > 100 µM in each case. The GI50 with OVCAR-3 ovarian and with HCT-116 colon was > 100 µM each time. Also, the TGI in the test on HL-60(TB) leukemia, with OVCAR-8 ovarian, in the test on SK-OV-3 ovarian, with LOX IMVI melanoma, in the test with MOLT-4 leukemia and with CCRF-CEM leukemia was > 100 µM each time. Moreover, the TGI in the test on OVCAR-3 ovarian and with HCT-116 colon was > 100 µM in each case.

Consider `CCCCNC(=S)OCCC(C)CCCC(C)C` (centres undefined), for which the TGI in the test with HL-60(TB) leukemia, with OVCAR-8 ovarian, with SK-OV-3 ovarian, with LOX IMVI melanoma, in the test with MOLT-4 leukemia and with CCRF-CEM leukemia was > 100 µM in each case. Further, the TGI in the test with HCT-116 colon was > 100 µM.

For `CC1=CP(=O)(c2ccccc2)C=C(C)C1=C(Cl)Cl` (centres undefined), the TGI was 5.61 µM with HL-60(TB) leukemia; > 100 µM with OVCAR-8 ovarian; 72.3 µM in the test on SK-OV-3 ovarian; 14.9 µM in the test with LOX IMVI melanoma; 21.6 µM with MOLT-4 leukemia; 19.2 µM with CCRF-CEM leukemia. The TGI in the test with OVCAR-3 ovarian was 30.9 µM; with HCT-116 colon it was 10.1 µM.

As for `CC1C=CC(C(N)C(=O)O)O1` (centres undefined), the TGI with HL-60(TB) leukemia, with OVCAR-8 ovarian, in the test on SK-OV-3 ovarian, with LOX IMVI melanoma, in the test on MOLT-4 leukemia and with CCRF-CEM leukemia was > 100 µM in each case. The TGI with OVCAR-3 ovarian and with HCT-116 colon was > 100 µM each time.

On to `CCOC(=N)CC(=O)Nc1ccccc1`, for which the TGI with HL-60(TB) leukemia is > 100 µM; in the test on OVCAR-8 ovarian it was > 21.5 µM; with SK-OV-3 ovarian it was > 100 µM; with LOX IMVI melanoma, > 71.4 µM; in the test on MOLT-4 leukemia, > 31.6 µM; in the test on CCRF-CEM leukemia, > 31.6 µM. In addition, the TGI was > 31.6 µM in the test with OVCAR-3 ovarian and > 46.4 µM with HCT-116 colon.

Turning to `COc1cc(/C=C(\NC(=O)c2ccccc2)c2nc3ncncc3[nH]2)cc(OC)c1OC`, the TGI in the test on HL-60(TB) leukemia, in the test with OVCAR-8 ovarian, in the test on SK-OV-3 ovarian, in the test with MOLT-4 leukemia, with CCRF-CEM leukemia and in the test with OVCAR-3 ovarian was > 100 µM in each case.

On to `CC(C)COC1Sc2ccccc2S1`, for which the TGI is > 100 µM in the test with OVCAR-8 ovarian; 43.2 µM in the test on SK-OV-3 ovarian; 37.9 µM with LOX IMVI melanoma; > 100 µM in the test on MOLT-4 leukemia; > 100 µM with CCRF-CEM leukemia; 34.2 µM with OVCAR-3 ovarian.

For the compound `COCCc1n(Cc2ccc3ccccc3c2)c2ccccc2[n+]1Cc1ccc2ccccc2c1`, the GI50 in the test on SK-OV-3 ovarian is 1.28 µM; in the test with MDA-MB-435, 0.41 µM; in the test with OVCAR-3 ovarian, 0.451 µM. Moreover, the figures for the TGI with SK-OV-3 ovarian, with MDA-MB-435 and in the test on OVCAR-3 ovarian were 2.59 µM, 1.56 µM and 1.72 µM, respectively.

For the compound `COc1ccc(/C=C/C(=O)c2c(-c3ccccc3)nn(C)c(=O)c2N2CCOCC2)cc1`, the TGI in the test on HL-60(TB) leukemia is 60.6 µM; in the test with OVCAR-8 ovarian, > 100 µM; in the test on SK-OV-3 ovarian, > 100 µM; with LOX IMVI melanoma, > 100 µM; in the test on MOLT-4 leukemia, > 100 µM; with CCRF-CEM leukemia it was > 100 µM. Further, the TGI in the test with HCT-116 colon is > 100 µM.

For the compound `Nc1nc2c(-c3ccc([N+](=O)[O-])cc3)nnn2c2ccccc12`, the TGI in the test with HL-60(TB) leukemia is > 100 µM; in the test on OVCAR-8 ovarian it was > 100 µM; in the test with SK-OV-3 ovarian, > 100 µM; in the test on LOX IMVI melanoma it was > 100 µM; in the test with MOLT-4 leukemia, > 100 µM; in the test on OVCAR-3 ovarian it was 95.3 µM.

On to `c1ccc2c(c1)Cc1c(Cc3csc4ccccc34)ccc3cccc-2c13`, for which the TGI in the test on HL-60(TB) leukemia, in the test on OVCAR-8 ovarian, with MOLT-4 leukemia, in the test with CCRF-CEM leukemia, in the test on OVCAR-3 ovarian and in the test on HCT-116 colon was > 100 µM in each case.
